# According to US10766917B2, “Nucleotides for the treatment of cancer” (IDENIX PHARMACEUTICALS LLC, priority 2015, dated 2020):
# Like-named read-outs stand apart in the source and are kept apart here.
# Tests used:
# Format in all cases: cell-based
# HuH-1 cells = experiment: In vitro inhibition of HuH-1, MTT assay; conditions: read-out: HuH-1: relative IC50
# Procedure: HuH-1 cells were purchased from JCRB and tested with the following method:
# Cells are suspended at a specific density in a specific culture medium (see table in 2.Cell lines).
# Then, 100 μl of cell suspension are plated per well in 96-well plates.
# Compounds or negative controls (DMSO) are added to the cells (100 μl of a compound solution in its specific medium with a final concentration of 0.15% DMSO).
# Each compound concentration is tested in duplicate (6 concentrations per compound).
# Cells are incubated at 37° C. for 72 h without treating again.
# SDS is added to control wells (final concentration of 1%) and kept for 15 min at 37° C. SDS 1% represents the positive control of proliferation inhibition.
# Cell supernatant is removed and 100 μl of a MTT (3-[4.5-dimethylthiazol-2-yl]-2.5-diphenyltetrazolium bromide) solution in fresh medium are added per well (MTT final concentration of 0.5 mg/ml) and incubated for 4 h at 37° C.
# MTT reaction is stopped and homogenized by adding 100 μl/well of SDS 10%, 0.01M HCl and incubated for 2 h at 37° C.
# Absorbance is measured at 570 nm.
# HepG2 = experiment: In vitro inhibition, CellTiter-Glo (CTG) assay; conditions: 72 hr exposure
# Procedure: (§1) Cells were grown in RPMI-1640 supplemented with L-Glutamine and 10% FBS of the following cell lines:
# (§2) CCRF-CEM; HL-60; KG-1; CFPAC-1; MiaPACA-2; BxPC-3; HepG2; MDA-MB-231; HCT-116; A498; and NCI-H69
# (§3) 18, 96 well plates of each cell line were seeded with the optimized number of cells per well in a total volume of 50 μper well. The plates were left overnight. Plate wells were seeded with 100 pt media for media control. The following day, cells were exposed to test compounds as described below. At the same time as drug exposure, a CTG assay was conducted on the 18th plate for the 0 hr count.
# (§4) The compounds were added to cells and medium already on the plate to give desired final concentrations. 50 μL media were added to cell control wells, and 50 μL of mix added to vehicle control wells. 10 μM Doxorubicin was added to appropriate wells as control. Cells exposed to test compound were incubated at 37° C. for 72 hr followed by a CTG assay.
# (§5) At the end of the 72 hr exposure period, plates were removed for a CellTiter-Glo (CTG) assay from a 37° C., 5% CO2 incubator and placed on the bench at room temperature for 30 mins. 100 μL of CellTiter-Glo reagent was added and mixed for 2 mins, followed by a further 10 min incubation at room temperature. Luminescence was recorded using Synergy 4.0.
# HCT-116 = experiment: In vitro inhibition, CellTiter-Glo (CTG) assay; conditions: 72 hr exposure
# Procedure: as §1, §2, §3, §4, §5
# MiaPACA-2 = experiment: In vitro inhibition, CellTiter-Glo (CTG) assay; conditions: 72 hr exposure
# Procedure: as §1, §2, §3, §4, §5
# A498 = experiment: In vitro inhibition, CellTiter-Glo (CTG) assay; conditions: 72 hr exposure
# Procedure: as §1, §2, §3, §4, §5
# MDA-MB-231 = experiment: In vitro inhibition, CellTiter-Glo (CTG) assay
# Procedure: as §1, §2, §3, §4, §5
# CFPAC-1 = experiment: In vitro inhibition, CellTiter-Glo (CTG) assay; conditions: 72 hr exposure
# Procedure: as §1, §2, §3, §4, §5
# NCI-H69 = experiment: In vitro inhibition, CellTiter-Glo (CTG) assay
# Procedure: as §1, §2, §3, §4, §5
# BxPC-3 = experiment: In vitro inhibition, CellTiter-Glo (CTG) assay; conditions: 72 hr exposure
# Procedure: as §1, §2, §3, §4, §5
# KG-1 = experiment: In vitro inhibition, CellTiter-Glo (CTG) assay
# Procedure: as §1, §2, §3, §4, §5
# CCRF-CEM = experiment: In vitro inhibition, CellTiter-Glo (CTG) assay; conditions: 72 hr exposure
# Procedure: as §1, §2, §3, §4, §5
# HL-60 = experiment: In vitro inhibition, CellTiter-Glo (CTG) assay
# Procedure: as §1, §2, §3, §4, §5
# [1] = Homo sapiens, KG-1, 72 h, 72 hr exposure
# [2] = Homo sapiens, MDA-MB-231, 72 hr exposure
# [3] = Homo sapiens, NCI-H69, 72 h, 72 hr exposure
# [4] = Homo sapiens, HL-60, 72 h, 72 hr exposure
Structure (SMILES),"IC50 (HepG2; Homo sapiens, HepG2, 72 h) [µM]",IC50 (HCT-116) [µM],"IC50 (MiaPACA-2; Homo sapiens, MIA PaCa-2, 72 h) [µM]",IC50 (MDA-MB-231; 72 hr exposure) [µM],IC50 (NCI-H69; 72 hr exposure) [µM],IC50 (BxPC-3) [µM],IC50 (HepG2) [µM],IC50 (MiaPACA-2) [µM],IC50 (MDA-MB-231; [2]) [µM],"IC50 (HCT-116; Homo sapiens, HCT-116, 72 h) [µM]",IC50 (CCRF-CEM) [µM],IC50 (A498) [µM],"IC50 (CFPAC-1; Homo sapiens, CFPAC-1, 72 h) [µM]","IC50 (A498; Homo sapiens, A498, 72 h) [µM]",IC50 (CFPAC-1) [µM],IC50 (KG-1; 72 hr exposure) [µM],further results
"CC(C)OP1(=O)OC[C@H]2O[C@@H](n3ccc(N)nc3=O)C(F)(F)[C@@H]2O1 (single isomer, unassigned) [102 (diastereomer 2)]",,1 to 10,,,,1 to 10,< 1,1 to 10,10 to 100,,,,,10 to 100,1 to 10,,IC50 (KG-1; [1]): < 1 µM; IC50 (NCI-H69; [3]): 10 to 100 µM
"Cn1c(COP(=O)(NCc2ccccc2)OC[C@H]2O[C@@H](n3ccc(N)nc3=O)C(F)(F)[C@@H]2O)cnc1[N+](=O)[O-] (single isomer, unassigned) [112 (diastereomer 1)]",,,10 to 100,,,,10 to 100,,10 to 100,10 to 100,10 to 100,,,10 to 100,10 to 100,10 to 100,"IC50 (HL-60; [4]): 1 to 10 µM; IC50 (NCI-H69; [3]): 10 to 100 µM; IC50 (BxPC-3; Homo sapiens, BXPC-3, 72 h): 10 to 100 µM"
"CC(C)OC(=O)[C@H](C)NP1(=O)OC[C@H]2O[C@@H](n3ccc(N)nc3=O)C(F)(F)[C@@H]2O1 (single isomer, unassigned) [103 (diastereomer 1)]",< 1,,1 to 10,,,10 to 100,,,10 to 100,1 to 10,,,< 1,10 to 100,,,"IC50 (CCRF-CEM; Homo sapiens, CCRF-CEM): < 1 µM; IC50 (KG-1; Homo sapiens, KG-1, 72 hr exposure): < 1 µM; IC50 (HL-60; Homo sapiens, HL-60, 72 hr exposure): < 1 µM; IC50 (NCI-H69; Homo sapiens, NCI-H69, 72 hr exposure): 10 to 100 µM"
"CC(C)OC(=O)[C@H](C)NP1(=O)OC[C@H]2O[C@@H](n3ccc(N)nc3=O)C(F)(F)[C@@H]2O1 (single isomer, unassigned) [103 (diastereomer 2)]",,1 to 10,,10 to 100,10 to 100,1 to 10,< 1,1 to 10,,,< 1,10 to 100,,,1 to 10,< 1,IC50 (HL-60; 72 hr exposure): < 1 µM
"CCOC(=O)COP(=O)(N[C@@H](CC(C)C)C(=O)OCC)OC[C@H]1O[C@@H](n2ccc(N)nc2=O)C(F)(F)[C@@H]1O (single isomer, unassigned) [108 (diastereomer 1)]",< 1,,< 1,,1 to 10,,,,1 to 10,1 to 10,,< 1,< 1,,,,"IC50 (CCRF-CEM; Homo sapiens, CCRF-CEM, 72 h): < 1 µM; IC50 (KG-1; [1]): < 1 µM; IC50 (HL-60; [4]): < 1 µM; IC50 (BxPC-3; Homo sapiens, BXPC-3, 72 h): 1 to 10 µM"
"CCOC(=O)COP(=O)(N[C@@H](CC(C)C)C(=O)OCC)OC[C@H]1O[C@@H](n2ccc(N)nc2=O)C(F)(F)[C@@H]1O (single isomer, unassigned) [108 (diastereomer 2)]",,1 to 10,,1 to 10,10 to 100,< 1,< 1,< 1,,,< 1,10 to 100,,,< 1,< 1,IC50 (HL-60; 72 hr exposure): < 1 µM
"CCOC(=O)[C@@H](C)CCO[P@]1(=O)OC[C@H]2O[C@@H](n3ccc(N)nc3=O)C(F)(F)[C@@H]2O1 (single isomer, unassigned) [Compound 122 Diastereoisomer 2]",,,,,,,,,,,,,,,,,"IC50 (HuH-1 cells; Homo sapiens, HuH-1, 72 h): < 0.3 µM"
"CCOC(=O)[C@H](C)CCO[P@@]1(=O)OC[C@H]2O[C@@H](n3ccc(N)nc3=O)C(F)(F)[C@@H]2O1 (single isomer, unassigned; diastereoisomer 1) [Compound 123 Diastereoisomer 1]",,,,,,,,,,,,,,,,,IC50 (HuH-1 cells; 72 h): < 0.3 µM
"CC(C)OC(=O)[C@H](C)CCO[P@@]1(=O)OC[C@H]2O[C@@H](n3ccc(N)nc3=O)C(F)(F)[C@@H]2O1 (single isomer, unassigned; diastereoisomer 2) [Compound 120 Diastereoisomer 2]",,,,,,,,,,,,,,,,,IC50 (HuH-1 cells; 72 h): < 0.3 µM

# Now from value to compound, other results behind:
"IC50 (HepG2; Homo sapiens, HepG2, 72 h) [µM]",IC50 (HCT-116) [µM],"IC50 (MiaPACA-2; Homo sapiens, MIA PaCa-2, 72 h) [µM]",IC50 (MDA-MB-231; 72 hr exposure) [µM],IC50 (NCI-H69; 72 hr exposure) [µM],IC50 (BxPC-3) [µM],IC50 (HepG2) [µM],IC50 (MiaPACA-2) [µM],IC50 (MDA-MB-231; [2]) [µM],"IC50 (HCT-116; Homo sapiens, HCT-116, 72 h) [µM]",IC50 (CCRF-CEM) [µM],Structure (SMILES),IC50 (A498) [µM],"IC50 (CFPAC-1; Homo sapiens, CFPAC-1, 72 h) [µM]","IC50 (A498; Homo sapiens, A498, 72 h) [µM]",IC50 (CFPAC-1) [µM],IC50 (KG-1; 72 hr exposure) [µM],further results
1 to 10,10 to 100,1 to 10,10 to 100,10 to 100,10 to 100,,,,,,"CC(C)OP1(=O)OC[C@H]2O[C@@H](n3ccc(N)nc3=O)C(F)(F)[C@@H]2O1 (single isomer, unassigned) [Compound 102 (diastereomer 1)]",10 to 100,1 to 10,,,,"IC50 (HuH-1 cells; Homo sapiens, HuH-1, 72 h): ≥ 0.3 µM"
< 1,,< 1,,,,,,1 to 10,< 1,,Nc1ccn([C@@H]2O[C@H](COP(=O)(O)NCc3ccccc3)[C@@H](O)C2(F)F)c(=O)n1 [Compound 117],,< 1,< 1,,,"IC50 (CCRF-CEM; Homo sapiens, CCRF-CEM, 72 h): < 1 µM; IC50 (KG-1; [1]): < 1 µM; IC50 (HL-60; [4]): < 1 µM; IC50 (NCI-H69; [3]): < 1 µM; IC50 (BxPC-3; Homo sapiens, BXPC-3, 72 h): < 1 µM"
,10 to 100,,10 to 100,10 to 100,10 to 100,1 to 10,10 to 100,,,< 1,"Cn1c(COP(=O)(NCc2ccccc2)OC[C@H]2O[C@@H](n3ccc(N)nc3=O)C(F)(F)[C@@H]2O)cnc1[N+](=O)[O-] (single isomer, unassigned) [112 (diastereomer 2)]",10 to 100,,,1 to 10,1 to 10,IC50 (HL-60; 72 hr exposure): < 1 µM
